# Assay results as given in patent publication US10494363B2, “Non-steroidal glucocorticoid receptor modulators for local drug delivery” (LEO PHARMA A/S, priority 2015, dated 2019).
# What was measured:
# [1] = biological target: T1, glucocorticoid receptor (GR), recombinant full-length receptor protein (Homo sapiens, UniProt P04150); experiment: Glucocorticoid receptor binding assay (fluorescence polarization kit); conditions: 4 nM receptor, 2.5 nM Fluormone GS1 tracer, 2h room temperature, read-out: GR binding ABS IC50
# T1 construct: 4 nM recombinant, full-length receptor protein was incubated with increasing concentrations of GR ligand; purchased Life Technologies A-15897
# T1 sequence (P04150 1-777): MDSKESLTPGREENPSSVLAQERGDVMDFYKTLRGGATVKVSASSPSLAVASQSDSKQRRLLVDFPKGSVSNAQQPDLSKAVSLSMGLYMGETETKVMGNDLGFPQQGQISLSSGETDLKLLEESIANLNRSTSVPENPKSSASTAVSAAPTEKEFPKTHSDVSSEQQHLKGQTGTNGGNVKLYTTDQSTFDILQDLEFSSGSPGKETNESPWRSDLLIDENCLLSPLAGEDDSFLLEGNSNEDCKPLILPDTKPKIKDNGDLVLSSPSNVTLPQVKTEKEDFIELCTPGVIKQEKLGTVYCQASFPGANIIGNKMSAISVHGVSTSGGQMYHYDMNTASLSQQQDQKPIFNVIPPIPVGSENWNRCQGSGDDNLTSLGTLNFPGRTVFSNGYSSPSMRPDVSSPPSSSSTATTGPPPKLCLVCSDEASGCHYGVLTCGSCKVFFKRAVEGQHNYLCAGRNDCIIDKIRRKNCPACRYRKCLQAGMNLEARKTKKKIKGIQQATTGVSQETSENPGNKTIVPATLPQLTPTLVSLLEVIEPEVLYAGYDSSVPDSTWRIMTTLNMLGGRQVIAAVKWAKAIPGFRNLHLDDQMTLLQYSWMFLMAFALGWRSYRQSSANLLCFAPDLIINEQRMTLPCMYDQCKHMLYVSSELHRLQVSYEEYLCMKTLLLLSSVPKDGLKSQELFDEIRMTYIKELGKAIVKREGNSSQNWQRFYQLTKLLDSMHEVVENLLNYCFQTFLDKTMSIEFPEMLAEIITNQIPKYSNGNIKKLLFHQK
# Procedure: Test compounds were diluted in DMSO over seven orders of magnitude, further diluted in assay buffer and distributed into 384-well plates. The sensitivity limit of this assay was 2-4 nM.
# Data were processed by sigmoidal curve fitting.
# Absolute (Abs) IC50 and Emax were determined from the curve fits.
# [2] = test system: TNF alpha release from human PBMCs; experiment: Inhibition of TNF alpha release from human PBMCs; assay type: cell-based; conditions: PBMC, LPS 1 μg/ml, 18 hours, AlphaLISA
# Procedure: PBMC were isolated from fresh buffy coats by density centrifugation using lymphoprep (Medinor AB, cat no 1019818) tubes. Isolated PBMCs were washed in assay medium (RPMI1640 with 25 mM HEPES, 1% pen/strep, 200 mM L glutamine and 10% Foetal calf serum). Surplus PBMCs were frozen in medium containing extra 10% foetal calf serum and 5% DMSO. On the assay day, fresh cells or cryopreserved cells after thawing were washed in serum free medium (RPMI1640 with 25 mM HEPES, 1% pen/strep, 200 mM L glutamine and 0.5% human serum albumin) and counted, in order to determine the fraction of living cells (generally >95%).
# Test compounds were diluted in DMSO over seven orders of magnitude, further diluted in serum-free medium and distributed into wells of 384 well tissue culture plates. LPS was added to a final concentration of 1 μg/ml to the cells. Immediately thereafter titrated test compounds were added and incubated for 18 hours at 37° C.
# The level of TNF-a in the culture supernatant was quantitated by AlphaLISA (Perkin Elmer). 2-(3,5-dichloro-4-pyridinyl)-1-(7-methoxyspiro[1,3-benzodioxole-2,1′-cyclopentan]-4-yl)-ethanone (CAS 185406-34-2) at 100×IC50 was used to define the assay window.
# Data were processed by sigmoidal curve fitting. EC50 and Emax were determined from the curve fits.
# [3] = Human liver microsomes (HLM) assay; assay type: in vitro ADME; conditions: hepatic extraction ratio; 0.5 μM compound, 0.5 mg/mL microsomes, NADPH, 37° C.
# Procedure: Incubations of test compounds in DMSO, diluted with phosphate buffer, pH 7.4, at 0.5 μM were carried out with human liver microsomes (0.5 mg/mL). The percentage of organic solvent in the incubations was 1%. The human liver microsomal suspension in phosphate buffer was mixed with NADPH (1 mM) and preheated to 37° C. before test compound was added. Aliquots were taken at 0, 5, 10, 20 and 30 minutes, and reactions were terminated by addition of methanol containing analytical internal standard (IS).
# The results were expressed as apparent clearance (Clapp) (mL/min/kg) and hepatic extraction ratio (Eh) (%) calculated from the rate constant (k) (min^−1) of test compound depletion.
Structure (SMILES),IC50 [1],HLM assay Eh (%) [3],EC50 [2]
"COCC(=O)N[C@@H](C)[C@H](Oc1ccc(C(=O)N[C@H]2CCCN(C(=O)[C@H]3COC(=O)C3)C2)nc1)c1ccc(C2CC2)cc1 [Compound 14, 5-[(1R,2S)-1-(4-cyclopropylphenyl)-2-[(2-methoxyacetyl)amino]propoxy]-N-[(3S)-1-[(3R)-5-oxotetrahydrofuran-3-carbonyl]-3-piperidyl]pyridine-2-carboxamide]",100 to 300 nM,* (extraction ratio (Eh)>90%),< 100 nM
"C[C@H](NC(=O)[C@@H](C)O)[C@H](Oc1ccc(C(=O)N[C@H]2CCCN(C(=O)[C@H]3COC(=O)C3)C2)nc1)c1ccc(C2CC2)cc1 [Compound 11, 5-[(1R,2S)-1-(4-cyclopropylphenyl)-2-[[(2R)-2-hydroxypropanoyl]amino]propoxy]-N-[(3S)-1-[(3R)-5-oxotetrahydrofuran-3-carbonyl]-3-piperidyl]pyridine-2-carboxamide]",> 300 nM,* (extraction ratio (Eh)>90%),< 100 nM
"Cc1ccc([C@@H](Oc2ccc(C(=O)N[C@H]3CCCN(C(=O)[C@H]4COC(=O)C4)C3)nc2)[C@H](C)NC(=O)C(F)(F)F)cc1 [Compound 1, N-[(3S)-1-[(3R)-5-oxotetrahydrofuran-3-carbonyl]-3-piperidyl]-5-[(1R,2S)-1-(p-tolyl)-2-[(2,2,2-trifluoroacetyl)amino]propoxy]pyridine-2-carboxamide]",–,* (extraction ratio (Eh)>90%),< 100 nM
"C[C@H](NC(=O)c1cnco1)[C@H](Oc1ccc(C(=O)N[C@H]2CCCN(C(=O)[C@H]3COC(=O)C3)C2)nc1)c1ccc(C2CC2)cc1 [Compound 9, N-[(1S,2R)-2-(4-cyclopropylphenyl)-1-methyl-2-[[6-[[(3S)-1-[(3R)-5-oxotetrahydrofuran-3-carbonyl]-3-piperidyl]carbamoyl]-3-pyridyl]oxy]ethyl]oxazole-5-carboxamide]",100 to 300 nM,* (extraction ratio (Eh)>90%),< 100 nM
"Cc1ccc([C@@H](Oc2ccc(C(=O)N[C@@H]3CCCN(C(=O)[C@H]4COC(=O)C4)C3)nc2)[C@H](C)NC(=O)C(F)(F)F)cc1 [Compound 59, N-[(3R)-1-[(3R)-5-oxotetrahydrofuran-3-carbonyl]-3-piperidyl]-5-[(1R,2S)-1-(p-tolyl)-2-[(2,2,2-trifluoroacetyl)amino]propoxy]pyridine-2-carboxamide]",–,** (50%<extraction ratio (Eh)<90%),< 100 nM
"Cc1ccc([C@@H](Oc2ccc(C(=O)N[C@@H]3CCN(C(=O)[C@H]4COC(=O)C4)C3)nc2)[C@H](C)NC(=O)C(F)(F)F)cc1 [Compound 65, N-[(3R)-1-[(3R)-5-oxotetrahydrofuran-3-carbonyl]pyrrolidin-3-yl]-5-[(1R,2S)-1-(p-tolyl)-2-[(2,2,2-trifluoroacetyl)amino]propoxy]pyridine-2-carboxamide]",100 to 300 nM,–,< 100 nM
"C[C@H](NC(=O)C1CCCO1)[C@H](Oc1ccc(C(=O)O[C@H]2CCCN(C(=O)C3COC(=O)C3)C2)cc1)c1ccc(C2CC2)cc1 (stereo in doubt) [Compound 79, [(3S)-1-[(3R)-5-oxotetrahydrofuran-3-carbonyl]-3-piperidyl] 4-[(1R,2S)-1-(4-cyclopropylphenyl)-2-[[(2R)-tetrahydrofuran-2-carbonyl]amino]propoxy]benzoate]",< 100 nM,–,< 100 nM

# Now from value to compound, other results behind:
IC50 [1],HLM assay Eh (%) [3],Structure (SMILES),EC50 [2]
< 100 nM,* (extraction ratio (Eh)>90%),"Cc1scnc1C(=O)N[C@@H](C)[C@H](Oc1ccc(C(=O)O[C@H]2CCCN(C(=O)[C@H]3COC(=O)C3)C2)cc1)c1ccc(C2CC2)cc1 [Compound 29, [(3S)-1-[(3R)-5-oxotetrahydrofuran-3-carbonyl]-3-piperidyl] 4-[(1R,2S)-1-(4-cyclopropylphenyl)-2-[(5-methylthiazole-4-carbonyl)amino]propoxy]benzoate]",< 100 nM
< 100 nM,* (extraction ratio (Eh)>90%),"C[C@H](NC(=O)c1ccsn1)[C@H](Oc1ccc(C(=O)O[C@H]2CCCN(C(=O)[C@H]3COC(=O)C3)C2)cc1)c1ccc(C2CC2)cc1 [Compound 44, [(3S)-1-[(3R)-5-oxotetrahydrofuran-3-carbonyl]-3-piperidyl] 4-[(1R,2S)-1-(4-cyclopropylphenyl)-2-(isothiazole-3-carbonylamino)propoxy]benzoate]",< 100 nM
< 100 nM,* (extraction ratio (Eh)>90%),"Cc1cc(C(=O)N[C@@H](C)[C@H](Oc2ccc(C(=O)O[C@H]3CCCN(C(=O)[C@H]4COC(=O)C4)C3)cc2)c2ccc(C3CC3)cc2)no1 [Compound 53, [(3S)-1-[(3R)-5-oxotetrahydrofuran-3-carbonyl]-3-piperidyl] 4-[(1R,2S)-1-(4-cyclopropylphenyl)-2-[(5-methylisoxazole-3-carbonyl)amino]propoxy]benzoate]",< 100 nM
< 100 nM,* (extraction ratio (Eh)>90%),"C[C@H](NC(=O)c1cnsn1)[C@H](Oc1ccc(C(=O)O[C@H]2CCCN(C(=O)[C@H]3COC(=O)C3)C2)cc1)c1ccc(C2CC2)cc1 [Compound 25, [(3S)-1-[(3R)-5-oxotetrahydrofuran-3-carbonyl]-3-piperidyl] 4-[(1R,2S)-1-(4-cyclopropylphenyl)-2-(1,2,5-thiadiazole-3-carbonylamino)propoxy]benzoate]",< 100 nM
< 100 nM,–,"C[C@H](NC(=O)c1cncs1)[C@H](Oc1ccc(C(=O)O[C@H]2CCCN(C(=O)[C@H]3COC(=O)C3)C2)cc1)c1ccc(C2CC2)cc1 [Compound 27, [(3S)-1-[(3R)-5-oxotetrahydrofuran-3-carbonyl]-3-piperidyl] 4-[(1R,2S)-1-(4-cyclopropylphenyl)-2-(thiazole-5-carbonylamino)propoxy]benzoate]",< 100 nM
< 100 nM,–,"C[C@H](NC(=O)C(F)(F)F)[C@H](Oc1ccc(C(=O)N[C@H]2CCCN(C(=O)[C@H]3COC(=O)C3)C2)nc1)c1ccc(-c2ccccc2)cc1 [Compound 68, N-[(3S)-1-[(3R)-5-oxotetrahydrofuran-3-carbonyl]-3-piperidyl]-5-[(1R,2S)-1-(4-phenylphenyl)-2-[(2,2,2-trifluoroacetyl)amino]propoxy]pyridine-2-carboxamide]",< 100 nM
< 100 nM,–,"C[C@H](NC(=O)[C@@H]1CCCO1)[C@H](Oc1ccc(C(=O)O[C@H]2CCCN(C(=O)[C@H]3COC(=O)C3)C2)cc1)c1ccc(C2CC2)cc1 [Compound 78, [(3S)-1-[(3R)-5-oxotetrahydrofuran-3-carbonyl]-3-piperidyl] 4-[(1R,2S)-1-(4-cyclopropylphenyl)-2-[[(2S)-tetra hydrofuran-2-carbonyl]amino]propoxy]benzoate]",< 100 nM
< 100 nM,–,"C[C@H](NC(=O)CO)[C@H](Oc1ccc(C(=O)N[C@H]2CCCN(C(=O)[C@H]3COC(=O)C3)C2)nc1)c1ccc(C2CC2)cc1 [Compound 21, 5-[(1R,2S)-1-(4-cyclopropylphenyl)-2-[(2-hydroxyacetyl)amino]propoxy]-N-[(3S)-1-[(3R)-5-oxotetrahydrofuran-3-carbonyl]-3-piperidyl]pyridine-2-carboxamide]",< 100 nM
